Measured values: US11175294B2, “Protein composition and methods for analysing microbiota” (UNIVERSITY OF OTTAWA, priority 2016, dated 2021)

Key:
[1] = test system: Akkermansia genus species in cultured microbiome; test: RapidAIM assay of an individual microbiome treated with berberine, species-level taxonomic quantification on MetaLab; assay type: cell-based; conditions: high concentration vs sample cultured without drug treatment
Description: Developing RapidAIM in a multi-well plate format: microbiota can be inoculated and grown in culture media. Assays, performed in any multiwall format (e.g. 6 well to 96 well plate formats, or any other type of format, for example, using tubes) and can be titrated, examining at each stage whether the yield per well provides sufficient material for downstream analyses. The analysis can be performed using a workflow for metaproteome as described in Zhang et al. “MetaPro-IQ: a universal metaproteomic approach to studying human and mouse gut microbiota”, Microbiome, 2016 Jun. 24:4(1):31, doi: 10.1186/s40168-016-0176-z. The workflow uses the close-to-complete human or mouse gut microbial gene catalog as a database and uses an iterative database search strategy. An example of a high-through put experimental workflow for the RapidAIM has been established based on a 96-well format (FIG. 9). This workflow includes, (A) 96-well based microbiome culturing, and (B) 96-well based metaproteomics analysis.
As an example, RapidAIM was used to assay an individual a microbiome treated with a high, medium or low dose of berberine compared to the sample cultured without drug treatment (FIG. 10). The taxonomic composition at the species level were quantified in each of the cultured microbiome sample on the MetaLab bioinformatics platform.

human microbiota = test: SILAMi-based metaproteomics of microbiota cultured with or without monosaccharides; assay type: cell-based; conditions: 2.5 g/L monosaccharide vs non-treated control; for overall effect on the metaproteome: 3,158 quantified proteins
Procedure: Finally, it was tested whether the […] labelled-standard could be used to distinguish the effects of different monosaccharides on the microbiota. It will be understood that monosaccharides are used herein as an example of a compound that may have an effect on the microbiota. However, other compounds that have be introduced to a microbiota sample or to a subject of which a microbiota sample has been obtained, that may impact the microbiota, may be similarly analyzed as described herein. Overall, 18 samples cultured with or without 2.5 g/L of each monosaccharide (N-acetyl glucosamine or GlcNAc, mannose, galactose, fucose, or glucose) were analyzed, by […]-based metaproteomics which led to 3,158 quantified proteins. Two hundred and forty-six protein groups were identified as being differentially abundant as compared to the non-treated control group (Table 4): […]

Akkermansia spp = conditions: reported in other literature; cited from earlier work

In the case of `COc1ccc2cc3[n+](cc2c1OC)CCc1cc2c(cc1-3)OCO2` [Berberine], the “abundances of the species originating from the Akkermansia genus” value [1] is reported as “significantly increased”.

In the case of `C[C@H](O)[C@@H](O)[C@@H](O)[C@H](O)C=O` [fucose], the “change of cluster 206, mainly fucose utilization-related proteins” value (human microbiota) is reported as “increased only in the fucose-treated microbiota”, the “change of quantified fucose utilizing proteins in the fucose utilization pathway” value (human microbiota) is reported as “all of the six quantified fucose utilizing proteins in the fucose utilization pathway were increased” and the “overall effect on the metaproteome” value (human microbiota) is reported as “smallest effect on the metaproteome”.

With `CC(=O)N[C@H]1C(O)O[C@H](CO)[C@@H](O)[C@@H]1O` (some centres unmarked) [GlcNAc, N-acetyl glucosamine] the “change of GlcNAc degrading proteins” value (human microbiota) was “significant increase”, the “change of asparagine synthase” value (human microbiota) was “significantly increased” and the “overall effect on the metaproteome” value (human microbiota) was “most dramatic alterations of the metaproteome”.

In the case of `CN(C)C(=N)N=C(N)N` [Metformin], the “Akkermansia spp in the gut microbiome” value (Akkermansia spp) is given as “increased”.
